Test results as given in patent publication US20250215030A1, “STAT MODULATORS AND USES THEREOF” (Recludix Pharma, Inc., priority 2022, published 2025).
pIC50: −log10 of the molar value.

Experiments:
[1] = target: T1, pSTAT6 (pY641-STAT6) (Homo sapiens, UniProt P42226); assay: MSD-pSTAT-PBMC Assay (pSTAT6, IL-4 stimulated); assay type: cell-based; conditions: compound 3 hrs, then 1 ng/mL IL-4 for 10 min
T1 construct: host or cells: cryopreserved PBMC
T1 sequence (P42226 1-847): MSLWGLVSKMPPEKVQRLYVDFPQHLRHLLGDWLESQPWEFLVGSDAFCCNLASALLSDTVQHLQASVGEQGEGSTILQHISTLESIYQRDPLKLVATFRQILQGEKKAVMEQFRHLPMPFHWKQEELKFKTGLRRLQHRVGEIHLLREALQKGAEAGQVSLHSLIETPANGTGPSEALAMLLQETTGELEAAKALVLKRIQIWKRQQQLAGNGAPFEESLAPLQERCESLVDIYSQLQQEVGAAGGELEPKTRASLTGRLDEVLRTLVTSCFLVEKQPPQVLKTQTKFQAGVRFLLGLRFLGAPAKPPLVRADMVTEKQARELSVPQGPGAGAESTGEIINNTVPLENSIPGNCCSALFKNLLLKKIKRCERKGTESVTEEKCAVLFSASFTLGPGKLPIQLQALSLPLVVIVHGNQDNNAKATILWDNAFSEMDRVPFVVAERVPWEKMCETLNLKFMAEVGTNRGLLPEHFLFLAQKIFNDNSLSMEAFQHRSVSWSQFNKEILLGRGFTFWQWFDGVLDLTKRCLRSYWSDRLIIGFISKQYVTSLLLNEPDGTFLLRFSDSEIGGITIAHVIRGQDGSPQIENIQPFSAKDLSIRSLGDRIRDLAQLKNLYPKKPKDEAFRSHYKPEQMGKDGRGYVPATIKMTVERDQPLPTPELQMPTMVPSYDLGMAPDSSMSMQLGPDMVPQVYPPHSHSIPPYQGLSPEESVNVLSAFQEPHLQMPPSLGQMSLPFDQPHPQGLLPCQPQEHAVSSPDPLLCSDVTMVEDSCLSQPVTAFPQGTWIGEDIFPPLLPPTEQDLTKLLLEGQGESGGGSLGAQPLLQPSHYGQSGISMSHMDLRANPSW
Method in brief: (§1)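 Phospho-STAT levels captured on anti-STAT3 or anti-STAT6 plates and detected with anti-pY705 or anti-pY641 antibodies (MSD read-out). Cryopreserved human PBMCs received compound for 3 h before a 10 min pulse of IL-6 (10 ng/mL, STAT3) or IL-4 (1 ng/mL, STAT6). IC50 fitted after unstimulated-background subtraction and DMSO normalization.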

[2] = target: T2, pSTAT3 (pY705-STAT3) (Homo sapiens, UniProt P40763); assay: MSD-pSTAT-PBMC Assay (pSTAT3, IL-6 stimulated); assay type: cell-based; conditions: PBMC, compound 3 hrs, then 10 ng/mL IL-6 for 10 min; MSD pY705-STAT3; read-out: pSTAT3
T2 construct: host or cells: cryopreserved PBMC
Method in brief: as §1

T2 sequence (P40763 whole entry): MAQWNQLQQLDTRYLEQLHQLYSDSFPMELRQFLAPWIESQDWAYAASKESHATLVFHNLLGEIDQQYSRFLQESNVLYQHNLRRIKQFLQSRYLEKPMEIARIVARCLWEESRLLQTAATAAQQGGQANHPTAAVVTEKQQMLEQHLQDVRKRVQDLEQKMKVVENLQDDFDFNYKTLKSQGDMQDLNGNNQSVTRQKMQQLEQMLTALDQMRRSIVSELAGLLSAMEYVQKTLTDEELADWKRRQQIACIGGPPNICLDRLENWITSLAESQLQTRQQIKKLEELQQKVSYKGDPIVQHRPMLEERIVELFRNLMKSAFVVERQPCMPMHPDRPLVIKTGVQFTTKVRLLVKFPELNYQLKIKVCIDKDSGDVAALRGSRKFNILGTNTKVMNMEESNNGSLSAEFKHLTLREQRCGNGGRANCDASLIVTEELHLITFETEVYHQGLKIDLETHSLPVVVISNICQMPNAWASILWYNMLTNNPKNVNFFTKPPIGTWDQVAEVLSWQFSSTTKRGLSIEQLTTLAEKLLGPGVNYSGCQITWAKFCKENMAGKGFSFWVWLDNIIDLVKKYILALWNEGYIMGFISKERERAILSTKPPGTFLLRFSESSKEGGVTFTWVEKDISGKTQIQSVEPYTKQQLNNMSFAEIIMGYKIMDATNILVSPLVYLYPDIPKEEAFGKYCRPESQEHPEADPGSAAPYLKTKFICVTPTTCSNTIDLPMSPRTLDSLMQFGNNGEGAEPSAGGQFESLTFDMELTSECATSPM

| pIC50 [1] | pIC50 [2] | SMILES |
| --- | --- | --- |
| 6.00 to 7.00 | > 7.00 | CC(C)(C)C(=O)OCOP(=O)(OCOC(=O)C(C)(C)C)C(F)(F)c1ccc2sc(C(=O)N[C@H]3C[C@H]4C[C@H]4C[C@H]4CC[C@@H](C(=O)N5CC(c6ccccn6)C5)N4C3=O)cc2c1 [Compound 209, (((difluoro(2-(((3S,6S,7aR, 8aS,9aR)-5-oxo-3-(3-(pyridin-2-yl)azetidine-1-carbonyl)decahydro-1H-cyclopropa[d]pyrrolo[1,2-a]azocin-6-yl)carbamoyl)benzo[b]thiophen-5-yl)methyl)phosphoryl)bis(oxy)) bis(methylene) bis(2,2-dimethyl-propanoate)] |
| 6.00 to 7.00 | > 7.00 | CC(C)(C)C(=O)OCOP(=O)(OCOC(=O)C(C)(C)C)C(F)(F)c1ccc2sc(C(=O)N[C@H]3C[C@@H]4C[C@@H]4C[C@H]4CC[C@@H](C(=O)N5CC6(CN(C(=O)Cc7ccccc7)C6)C5)N4C3=O)cc2c1 [Compound 210, (((difluoro(2-(((3S,6S,7aS, 8aR,9aR)-5-oxo-3-(6-(2-phenyl-acetyl)-2,6-diazaspiro[3.3]heptane-2-carbonyl)decahydro-1H-cyclopropa[d]pyrrolo[1,2-a]azocin-6-yl)carbamoyl)benzo[b]thiophen-5-yl)methyl)phosphoryl)bis(oxy)) bis(methylene) bis(2,2-dimethyl-propanoate)] |
| < 5.52 | 6.00 to 7.00 | CC(C)(C)C(=O)OCOP(=O)(OCOC(=O)C(C)(C)C)C(F)(F)c1ccc2sc(C(=O)N[C@H]3C[C@@H]4C[C@@H]4C[C@H]4CC[C@@H](C(=O)N5CCN(C(=O)c6cn[nH]c6)CC5)N4C3=O)cc2c1 [Compound 211, ((((2-(((3S,6S,7aS, 8aR,9aR)-3-(4-(1H-pyrazole-4-carbonyl)piperazine-1-carbonyl)-5-oxodecahydro-1H-cyclopropa[d]pyrrolo[1,2-a]azocin-6-yl)carbamoyl)benzo[b]thiophen-5-yl)difluoromethyl)phosphoryl)bis(oxy)) bis(methylene) bis(2,2-dimethyl-propanoate)] |

More lines, now with the values behind:

| SMILES | pIC50 [1] | pIC50 [2] |
| --- | --- | --- |
| CC(C)(C)C(=O)OCOP(=O)(OCOC(=O)C(C)(C)C)C(F)(F)c1ccc2sc(C(=O)N[C@H]3C[C@@H]4C[C@@H]4C[C@H]4CC[C@@H](C(=O)N5CC(c6ccccn6)C5)N4C3=O)cc2c1 [Compound 206, (((difluoro(2-(((3S,6S,7aS, 8aR,9aR)-5-oxo-3-(3-(pyridin-2-yl)azetidine-1-carbonyl)decahydro-1H-cyclopropa[d]pyrrolo[1,2-a]azocin-6-yl)carbamoyl)benzo[b]thiophen-5-yl)methyl)phosphoryl)bis(oxy)) bis(methylene) bis(2,2-dimethyl-propanoate)] | 6.00 to 7.00 | > 7.00 |
| CC(C)(C)C(=O)OCOP(=O)(OCOC(=O)C(C)(C)C)C(F)(F)c1ccc2sc(C(=O)N[C@H]3C[C@@H]4C[C@@H]4C[C@H]4CC[C@@H](C(=O)N5CC(n6ccnc6)C5)N4C3=O)cc2c1 [Compound 207] | < 5.52 | > 7.00 |
| CC(=O)N1C[C@H](NC(=O)[C@@H]2CC[C@@H]3C[C@H]4C[C@H]4C[C@H](NC(=O)c4cc5cc(C(F)(F)P(=O)(OCOC(=O)C(C)(C)C)OCOC(=O)C(C)(C)C)ccc5s4)C(=O)N32)[C@@H](O)C1 [Compound 208, ((((2-(((3S,6S,7aS, 8aR,9aR)-3-(((3S,4S)-1-acetyl-4-hydroxy-pyrrolidin-3-yl)carbamoyl) 5-oxodecahydro-1H-cyclopropa[d]pyrrolo[1,2-a]azocin-6-yl)carbamoyl)benzo[b]thiophen-5-yl)difluoromethyl)phosphoryl)bis(oxy)) bis(methylene) bis(2,2-dimethyl-propanoate)] | 5.52 to 6.00 | > 7.00 |
